From US20140187596A1, “FATTY ACID AMIDE HYDROLASE INHIHIBITORS FOR TREATING PAIN” (ALLERGAN, INC., priority 2011, published 2014) come the findings set out here.

Holding throughout (type): biochemical
One assay has as its target FP receptor (Homo sapiens, UniProt P43088). The assay can be described thus: PG receptor antagonism, FP. The arrangement: unit not given here. The note with it: antagonist activity at FP receptor.
The target in the next assay is T1, DP receptor (Homo sapiens, UniProt Q13258).
T1 sequence (Q13258 1-359): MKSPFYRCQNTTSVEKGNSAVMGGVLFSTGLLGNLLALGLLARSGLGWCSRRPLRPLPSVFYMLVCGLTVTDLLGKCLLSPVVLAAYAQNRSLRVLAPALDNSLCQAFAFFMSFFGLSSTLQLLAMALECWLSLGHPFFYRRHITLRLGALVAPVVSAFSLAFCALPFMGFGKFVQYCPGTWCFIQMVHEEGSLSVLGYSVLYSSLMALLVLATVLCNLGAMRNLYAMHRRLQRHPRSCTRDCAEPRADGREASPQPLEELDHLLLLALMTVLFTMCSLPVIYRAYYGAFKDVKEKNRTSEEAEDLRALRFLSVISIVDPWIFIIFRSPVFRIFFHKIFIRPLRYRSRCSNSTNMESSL
The experiment in a line: PG receptor antagonism, DP. Further details: unit not given here. The note with it: antagonist activity at DP receptor.

For the next assay, the target named is EP4 receptor (Homo sapiens, UniProt P35408). The experiment in a line: PG receptor antagonism, EP4. Further details: unit not given here. The note with it: antagonist activity at EP4 receptor.
Chain of EP4 receptor (P35408 whole entry): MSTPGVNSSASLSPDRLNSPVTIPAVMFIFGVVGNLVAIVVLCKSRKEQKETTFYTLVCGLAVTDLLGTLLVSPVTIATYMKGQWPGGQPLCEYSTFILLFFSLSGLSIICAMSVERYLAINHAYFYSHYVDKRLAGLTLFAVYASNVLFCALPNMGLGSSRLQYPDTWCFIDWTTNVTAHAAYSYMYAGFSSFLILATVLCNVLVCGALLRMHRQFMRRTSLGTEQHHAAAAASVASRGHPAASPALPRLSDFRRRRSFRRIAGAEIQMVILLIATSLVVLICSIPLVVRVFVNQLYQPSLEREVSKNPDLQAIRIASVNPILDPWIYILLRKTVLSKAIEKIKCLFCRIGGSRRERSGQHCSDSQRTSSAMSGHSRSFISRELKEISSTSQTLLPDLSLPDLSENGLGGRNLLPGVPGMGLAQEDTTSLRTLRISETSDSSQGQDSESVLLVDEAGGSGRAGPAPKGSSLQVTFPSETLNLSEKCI
In the next assay the target is T2, EP3 receptor (Homo sapiens, UniProt P43115).
T2 sequence (P43115 1-390): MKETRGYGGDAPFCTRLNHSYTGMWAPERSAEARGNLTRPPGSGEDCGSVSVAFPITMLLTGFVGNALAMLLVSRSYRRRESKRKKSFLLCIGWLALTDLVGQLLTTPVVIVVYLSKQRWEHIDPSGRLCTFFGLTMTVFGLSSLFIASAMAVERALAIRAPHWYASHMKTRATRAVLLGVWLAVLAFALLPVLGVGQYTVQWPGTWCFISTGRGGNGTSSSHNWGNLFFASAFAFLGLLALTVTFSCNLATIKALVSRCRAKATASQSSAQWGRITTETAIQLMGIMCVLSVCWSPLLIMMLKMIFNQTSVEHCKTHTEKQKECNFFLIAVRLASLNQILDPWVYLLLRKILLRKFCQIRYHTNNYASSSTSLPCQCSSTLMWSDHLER
The experiment in a line: PG receptor antagonism, EP3. The following applies: antagonist activity at EP3 receptor. The arrangement: unit not given here.

In the next assay the target is T3, EP1 receptor (Homo sapiens, UniProt P34995).
T3 sequence (P34995 1-402): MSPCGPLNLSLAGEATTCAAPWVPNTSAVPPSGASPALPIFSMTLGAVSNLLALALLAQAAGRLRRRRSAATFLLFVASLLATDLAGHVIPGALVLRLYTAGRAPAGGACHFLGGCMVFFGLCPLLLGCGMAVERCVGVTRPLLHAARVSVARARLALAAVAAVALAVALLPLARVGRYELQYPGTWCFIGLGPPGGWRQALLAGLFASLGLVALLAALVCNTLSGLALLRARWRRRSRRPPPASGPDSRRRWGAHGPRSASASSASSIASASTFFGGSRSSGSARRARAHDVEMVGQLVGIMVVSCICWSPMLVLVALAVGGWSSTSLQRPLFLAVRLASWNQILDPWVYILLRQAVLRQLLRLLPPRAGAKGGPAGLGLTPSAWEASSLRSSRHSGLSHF
The assay can be described thus: PG receptor antagonism, EP1. The arrangement: unit not given here. The note with it: antagonist activity at EP1 receptor.

The next assay addresses T4, TP receptor (Homo sapiens, UniProt P21731).
T4 sequence (P21731 1-343): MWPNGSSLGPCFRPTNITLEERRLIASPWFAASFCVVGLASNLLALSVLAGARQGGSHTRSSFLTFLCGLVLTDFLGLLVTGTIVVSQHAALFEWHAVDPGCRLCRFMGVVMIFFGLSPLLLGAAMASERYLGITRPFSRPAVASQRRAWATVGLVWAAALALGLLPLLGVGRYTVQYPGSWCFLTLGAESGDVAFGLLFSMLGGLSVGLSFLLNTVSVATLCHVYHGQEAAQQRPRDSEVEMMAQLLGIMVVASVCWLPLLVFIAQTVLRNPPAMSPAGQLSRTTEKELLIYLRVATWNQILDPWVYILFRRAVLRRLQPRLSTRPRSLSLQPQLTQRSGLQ
The experiment in a line: PG receptor antagonism, TP. The arrangement: unit not given here. The following applies: antagonist activity at TP receptor.

Another assay addresses IP receptor (Homo sapiens, UniProt P43119). The experiment in a line: PG receptor antagonism, IP. The arrangement: unit not given here. The note with it: antagonist activity at IP receptor.
Another assay has as its target EP2 receptor (Homo sapiens, UniProt P43116). The experiment in a line: PG receptor antagonism, EP2. The following applies: antagonist activity at EP2 receptor.

Chain of FP receptor (P43088 whole entry): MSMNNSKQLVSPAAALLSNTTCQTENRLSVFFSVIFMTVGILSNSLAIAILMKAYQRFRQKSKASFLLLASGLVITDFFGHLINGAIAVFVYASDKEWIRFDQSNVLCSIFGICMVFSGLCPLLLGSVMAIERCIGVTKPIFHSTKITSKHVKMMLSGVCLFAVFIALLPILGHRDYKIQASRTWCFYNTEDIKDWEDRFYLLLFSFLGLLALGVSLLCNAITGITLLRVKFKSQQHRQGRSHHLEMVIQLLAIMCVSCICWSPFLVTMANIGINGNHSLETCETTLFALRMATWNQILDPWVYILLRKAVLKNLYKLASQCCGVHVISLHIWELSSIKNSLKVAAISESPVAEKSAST
Chain of IP receptor (P43119 whole entry): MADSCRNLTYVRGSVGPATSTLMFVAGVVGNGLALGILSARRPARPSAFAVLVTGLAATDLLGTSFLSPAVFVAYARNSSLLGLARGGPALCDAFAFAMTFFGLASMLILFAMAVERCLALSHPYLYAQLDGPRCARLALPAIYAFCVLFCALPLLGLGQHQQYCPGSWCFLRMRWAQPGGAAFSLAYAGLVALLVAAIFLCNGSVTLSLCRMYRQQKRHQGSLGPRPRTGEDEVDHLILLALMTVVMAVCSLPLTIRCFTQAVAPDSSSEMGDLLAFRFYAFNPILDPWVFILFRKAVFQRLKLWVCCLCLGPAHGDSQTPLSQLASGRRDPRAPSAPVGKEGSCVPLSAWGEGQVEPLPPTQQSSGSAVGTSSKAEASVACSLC
Chain of EP2 receptor (P43116 whole entry): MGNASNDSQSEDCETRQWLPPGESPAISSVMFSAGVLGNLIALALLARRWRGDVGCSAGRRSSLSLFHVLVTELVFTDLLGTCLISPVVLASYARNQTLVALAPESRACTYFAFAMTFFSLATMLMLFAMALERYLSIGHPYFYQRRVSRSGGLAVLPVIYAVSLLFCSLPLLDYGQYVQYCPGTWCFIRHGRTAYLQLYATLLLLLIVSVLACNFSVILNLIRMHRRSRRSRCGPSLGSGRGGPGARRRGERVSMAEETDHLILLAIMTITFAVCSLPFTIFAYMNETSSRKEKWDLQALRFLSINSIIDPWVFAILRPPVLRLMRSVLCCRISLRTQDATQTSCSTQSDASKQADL

`CS(=O)(=O)NC(=O)/C=C/c1ccc(F)cc1C[C@@H]1C(c2nc(C(=O)NCCCCC3CCCCC3)co2)C2CC[C@H]1O2` (stereo partly drawn) [Example 3, (E)-3R-[2R-[[3-[4-[[(4-cyclohexylbutyl)amino]carbonyl]-2-oxazolyl]-7-oxabicyclo[2.2.1]hept-2-yl]methyl]-4-fluoro-phenyl]-N-(methylsulfonyl)acrylic amide] gave an FP at FP receptor of 90. Besides, the DP on DP receptor was found to be 30. This molecule also gave an EP4 on EP4 receptor of 100. At EP3 receptor, the EP3 was 790. The molecule also gave an EP1 on EP1 receptor of 65. The molecule also gave a TP on TP receptor of less than 1.
For the molecule `CCCCCCCCNC(=O)c1coc(C2C3CCC(O3)C2Cc2cc(F)ccc2/C=C/C(=O)NS(=O)(=O)CC)n1` (stereo not drawn) [Example 7], the FP on FP receptor was found to be 370. The same molecule displayed a DP on DP receptor of 45. At EP4 receptor, this molecule gave an EP4 of 200. Also, the EP3 at EP3 receptor came to 1900. This molecule had an EP1 on EP1 receptor of 80. Further, on IP receptor, the IP stood at 3500. On TP receptor, this molecule had a TP of less than 1.
The molecule `O=C(/C=C/c1ccc(F)cc1C[C@@H]1C(c2nc(C(=O)NCCCCC3CCCCC3)co2)C2CC[C@H]1O2)NS(=O)(=O)CC(F)(F)F` (stereo partly drawn) [Example 4, (E)-3R-[2R-[[3-[4-[[(4-cyclohexylbutyl)amino]carbonyl]-2-oxazolyl]-7-oxabicyclo[2.2.1]hept-2-yl]methyl]-4-fluoro-phenyl]-N-(2,2,2-trifluoroethanesulfonyl)acrylic amide] yielded an FP at FP receptor of 130. This molecule also gave a DP at DP receptor of 80. On EP4 receptor, this molecule came in with an EP4 of 80. This molecule gave an EP3 on EP3 receptor of 2500. The same molecule returned an EP1 on EP1 receptor of 50. Moreover, the TP on TP receptor is reported as less than 1. The EP2 at EP2 receptor was found to be 5300.
In the case of `CCS(=O)(=O)NC(=O)/C=C/c1ccc(F)cc1C[C@@H]1C(c2nc(C(=O)NCCCCC3CCCCC3)co2)C2CC[C@H]1O2` (stereo partly drawn) [Example 2, (E)-3R-[2R-[[3-[4-[[(4-cyclohexylbutyl)amino]carbonyl]-2-oxazolyl]-7-oxabicyclo[2.2.1]hept-2-yl]methyl]-4-fluoro-phenyl]-N-(ethylsulfonyl)acrylic amide], the FP at FP receptor was 100. For the same molecule, on DP receptor, the DP was determined as 50. For the same molecule, the EP4 at EP4 receptor is given as 140. The same molecule registered an EP3 at EP3 receptor of 1600. The same molecule gave an EP1 at EP1 receptor of 190. Besides, the IP at IP receptor is listed as 1100. On TP receptor, this molecule gave a TP of less than 1.
Molecule `CCCCCCCCCNC(=O)c1coc(C2C3CCC(O3)C2Cc2cc(F)ccc2CCC(=O)NS(=O)(=O)C(F)(F)F)n1` (stereo not drawn) [Example 8, 2-{3-[5-Fluoro-2-(3-oxo-3-trifluoromethanesulfonylamino-propyl)-benzyl]-7-oxa-bicyclo[2.2.1]hept-2-yl}-oxazole-4-carboxylic acid nonylamide] registered an FP on FP receptor of 50. At DP receptor, the DP is 10. The same molecule had an EP4 on EP4 receptor of 30. On EP3 receptor, this molecule showed an EP3 of 700. At EP1 receptor, this molecule returned an EP1 of 40. Further, the IP on IP receptor is on record as 3300. At TP receptor, the TP is reported as less than 1. This molecule showed an EP2 on EP2 receptor of 4000.
In turn, `O=C(O)/C=C/c1ccc(F)cc1C[C@@H]1C(c2nc(C(=O)NCCCCC3CCCCC3)co2)C2CC[C@H]1O2` (stereo partly drawn) [Example 1, (E)-3-(2R-{3R-[4-(4-Cyclohexyl-butylcarbamoyl)-oxazol-2-yl]-7-oxa-bicyclo[2.2.1]hept-2-ylmethyl}-4-fluoro-phenyl)-acrylic acid] came in with an FP on FP receptor of 60. For the same molecule, the DP at DP receptor stood at 70. Further, the EP4 on EP4 receptor was found to be 60. Also, the EP3 at EP3 receptor worked out at 5500. Moreover, at EP1 receptor, the EP1 amounted to 380. This molecule also gave a TP at TP receptor of less than 1.
Consider `O=C(/C=C/c1ccc(F)cc1C[C@@H]1C(c2nc(C(=O)NCCCCC3CCCCC3)co2)C2CC[C@H]1O2)NS(=O)(=O)c1ccccc1` (stereo partly drawn) [Example 6, (E)-3R-[2R-[[3-[4-[[(4-cyclohexylbutyl)amino]carbonyl]-2-oxazolyl]-7-oxabicyclo[2.2.1]hept-2-yl]methyl]-4-fluoro-phenyl]-N-(benzenesulfonyl)acrylic amide], for which, at FP receptor, the FP is on record as 100. At DP receptor, this molecule yielded a DP of 60. The same molecule had an EP4 at EP4 receptor of 380. On EP3 receptor, this molecule showed an EP3 of 290. At EP1 receptor, the EP1 is recorded as 60. This molecule showed an IP at IP receptor of 1500. The molecule further had a TP at TP receptor of less than 1.
